Source: US9248148B2, “Mono (iron hydroxypyrone) and combination (iron hydroxypyrone and GI inflammation inhibiting agents) compositions for anaemia or H. pylori infections” (Iron Therapeutics Holdings AG, priority 2008, dated 2016)

System: anaemia due to blood loss
Assay: Patient 1: anaemia after surgical blood loss, treated while continuing Gaviscon (acid reducer)
Excerpt: The patient had been taking Gaviscon™ which contains potassium bicarbonate as an acid reducer to reduce acid reflux. […] They continued to take Gaviscon™ but was also given ferrous sulphate tablets for their anaemia.

Structure (SMILES): O=S(=O)([O-])[O-].[Fe+2] [ferrous sulphate]
- correction of anaemia (patient 1, continuing Gaviscon (potassium bicarbonate)): failed to correct their anaemia
- tolerability / side effects (patient 1, continuing Gaviscon, maltol and ferrous gluconate at 45 mg/day): serious side effects of gastric intolerance and severe headaches
